pKi: −log10 of the molar value.
Assays:
Assay type in all cases: biochemical
EPHA2 = molecular target: T1, EPHA2 (Homo sapiens, UniProt P29317); assay: EPHA2 kinase assay, IMAP fluorescence polarization; conditions: 50 or 100 μM ATP, Tris pH 8.5, average
T1 construct: purchased Life Technologies

Abl = molecular target: T2, Abl (Homo sapiens, UniProt P00519); assay: Abl kinase assay, IMAP fluorescence polarization; conditions: 50 or 100 μM ATP, average
T2 construct: purchased Life Technologies
Summary of the method: (§1)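 IMAP FP format: 0.6-13 nM kinase, 100 nM FAM-peptide substrate, 50 or 100 μM ATP, Tris pH 7.2/4 mM MgCl2/0.2% BSA/2 mM DTT, 60 min RT. Compounds 0.00005-1 μM. Stop with 0.25% IMAP binding reagent (buffer A:B 85:15; 30:70 for Src).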

Src = molecular target: T3, Src (Homo sapiens, UniProt P12931); assay: Src kinase assay, IMAP fluorescence polarization; conditions: 50 or 100 μM ATP, average
T3 construct: purchased Life Technologies
T3 sequence (P12931 whole entry): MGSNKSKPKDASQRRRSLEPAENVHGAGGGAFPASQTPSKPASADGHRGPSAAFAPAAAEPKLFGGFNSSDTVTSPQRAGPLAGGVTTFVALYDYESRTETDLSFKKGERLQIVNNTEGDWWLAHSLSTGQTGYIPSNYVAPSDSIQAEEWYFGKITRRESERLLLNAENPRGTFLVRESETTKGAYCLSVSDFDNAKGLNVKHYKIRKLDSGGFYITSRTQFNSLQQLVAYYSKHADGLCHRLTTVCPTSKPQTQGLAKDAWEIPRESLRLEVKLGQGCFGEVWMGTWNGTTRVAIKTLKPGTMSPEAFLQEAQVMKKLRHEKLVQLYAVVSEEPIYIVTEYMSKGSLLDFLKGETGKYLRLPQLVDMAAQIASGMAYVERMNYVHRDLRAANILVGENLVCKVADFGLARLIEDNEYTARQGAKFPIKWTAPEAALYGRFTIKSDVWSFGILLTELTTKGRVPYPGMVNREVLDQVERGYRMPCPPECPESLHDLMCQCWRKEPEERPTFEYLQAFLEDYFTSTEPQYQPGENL
Summary of the method: as §1

SIK3 = molecular target: T4, SIK3 (Homo sapiens, UniProt Q9Y2K2); assay: SIK3 kinase assay, IMAP fluorescence polarization; conditions: 50 or 100 μM ATP, average
T4 construct: purchased Life Technologies
Summary of the method: as §1

SIK2 = molecular target: T5, SIK2 (Homo sapiens, UniProt Q9H0K1); assay: SIK2 kinase assay, IMAP fluorescence polarization; conditions: 50 or 100 μM ATP, average
T5 construct: purchased Life Technologies
T5 sequence (Q9H0K1 whole entry): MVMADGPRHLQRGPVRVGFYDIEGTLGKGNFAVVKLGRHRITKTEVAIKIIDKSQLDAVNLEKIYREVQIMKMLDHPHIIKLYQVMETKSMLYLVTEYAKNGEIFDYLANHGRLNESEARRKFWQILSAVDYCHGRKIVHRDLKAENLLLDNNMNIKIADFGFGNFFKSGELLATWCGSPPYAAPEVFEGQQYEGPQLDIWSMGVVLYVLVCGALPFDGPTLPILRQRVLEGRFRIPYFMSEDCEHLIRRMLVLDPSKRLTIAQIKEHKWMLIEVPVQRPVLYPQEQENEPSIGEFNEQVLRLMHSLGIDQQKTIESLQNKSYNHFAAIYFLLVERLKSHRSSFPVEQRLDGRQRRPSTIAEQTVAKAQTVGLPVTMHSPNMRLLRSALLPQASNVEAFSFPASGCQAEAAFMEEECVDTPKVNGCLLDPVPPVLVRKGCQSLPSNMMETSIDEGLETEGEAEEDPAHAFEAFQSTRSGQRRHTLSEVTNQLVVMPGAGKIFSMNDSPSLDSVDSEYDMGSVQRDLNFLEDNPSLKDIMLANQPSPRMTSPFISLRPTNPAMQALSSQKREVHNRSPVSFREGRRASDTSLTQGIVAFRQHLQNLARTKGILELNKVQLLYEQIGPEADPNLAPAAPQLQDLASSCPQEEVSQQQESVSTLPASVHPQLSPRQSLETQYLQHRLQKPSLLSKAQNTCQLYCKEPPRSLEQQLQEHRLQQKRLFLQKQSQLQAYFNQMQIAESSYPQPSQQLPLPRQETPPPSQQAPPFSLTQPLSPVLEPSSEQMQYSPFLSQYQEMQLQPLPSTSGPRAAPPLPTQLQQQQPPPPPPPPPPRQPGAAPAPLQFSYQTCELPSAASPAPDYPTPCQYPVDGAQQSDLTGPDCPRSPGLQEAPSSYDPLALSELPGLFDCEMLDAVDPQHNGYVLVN
Summary of the method: as §1

SIK1 = molecular target: T6, SIK1 (Homo sapiens, UniProt P57059); assay: SIK1 kinase assay, IMAP fluorescence polarization; conditions: 50 or 100 μM ATP, average
T6 construct: purchased Life Technologies
T6 sequence (P57059 whole entry): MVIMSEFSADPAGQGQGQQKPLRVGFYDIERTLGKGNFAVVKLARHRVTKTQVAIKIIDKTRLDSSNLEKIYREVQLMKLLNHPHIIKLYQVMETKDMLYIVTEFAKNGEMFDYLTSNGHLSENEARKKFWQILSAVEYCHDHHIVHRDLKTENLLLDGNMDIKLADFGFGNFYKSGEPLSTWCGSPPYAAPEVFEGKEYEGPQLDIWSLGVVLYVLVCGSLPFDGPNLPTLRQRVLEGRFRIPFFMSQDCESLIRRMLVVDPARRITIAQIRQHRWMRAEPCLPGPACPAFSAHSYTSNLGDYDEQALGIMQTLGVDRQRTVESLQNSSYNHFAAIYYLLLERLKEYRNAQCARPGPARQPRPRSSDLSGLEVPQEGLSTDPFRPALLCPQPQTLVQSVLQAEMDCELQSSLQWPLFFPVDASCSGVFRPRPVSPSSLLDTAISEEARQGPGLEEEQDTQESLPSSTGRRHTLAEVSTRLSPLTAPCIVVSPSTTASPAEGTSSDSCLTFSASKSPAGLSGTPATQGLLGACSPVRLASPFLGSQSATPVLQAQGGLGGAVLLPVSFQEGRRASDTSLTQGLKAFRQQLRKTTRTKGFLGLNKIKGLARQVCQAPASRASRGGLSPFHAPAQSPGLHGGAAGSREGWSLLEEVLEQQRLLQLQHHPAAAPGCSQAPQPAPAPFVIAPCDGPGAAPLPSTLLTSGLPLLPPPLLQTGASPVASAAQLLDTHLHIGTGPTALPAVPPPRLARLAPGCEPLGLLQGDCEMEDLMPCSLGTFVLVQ
Summary of the method: as §1

T1 sequence (P29317 24-976): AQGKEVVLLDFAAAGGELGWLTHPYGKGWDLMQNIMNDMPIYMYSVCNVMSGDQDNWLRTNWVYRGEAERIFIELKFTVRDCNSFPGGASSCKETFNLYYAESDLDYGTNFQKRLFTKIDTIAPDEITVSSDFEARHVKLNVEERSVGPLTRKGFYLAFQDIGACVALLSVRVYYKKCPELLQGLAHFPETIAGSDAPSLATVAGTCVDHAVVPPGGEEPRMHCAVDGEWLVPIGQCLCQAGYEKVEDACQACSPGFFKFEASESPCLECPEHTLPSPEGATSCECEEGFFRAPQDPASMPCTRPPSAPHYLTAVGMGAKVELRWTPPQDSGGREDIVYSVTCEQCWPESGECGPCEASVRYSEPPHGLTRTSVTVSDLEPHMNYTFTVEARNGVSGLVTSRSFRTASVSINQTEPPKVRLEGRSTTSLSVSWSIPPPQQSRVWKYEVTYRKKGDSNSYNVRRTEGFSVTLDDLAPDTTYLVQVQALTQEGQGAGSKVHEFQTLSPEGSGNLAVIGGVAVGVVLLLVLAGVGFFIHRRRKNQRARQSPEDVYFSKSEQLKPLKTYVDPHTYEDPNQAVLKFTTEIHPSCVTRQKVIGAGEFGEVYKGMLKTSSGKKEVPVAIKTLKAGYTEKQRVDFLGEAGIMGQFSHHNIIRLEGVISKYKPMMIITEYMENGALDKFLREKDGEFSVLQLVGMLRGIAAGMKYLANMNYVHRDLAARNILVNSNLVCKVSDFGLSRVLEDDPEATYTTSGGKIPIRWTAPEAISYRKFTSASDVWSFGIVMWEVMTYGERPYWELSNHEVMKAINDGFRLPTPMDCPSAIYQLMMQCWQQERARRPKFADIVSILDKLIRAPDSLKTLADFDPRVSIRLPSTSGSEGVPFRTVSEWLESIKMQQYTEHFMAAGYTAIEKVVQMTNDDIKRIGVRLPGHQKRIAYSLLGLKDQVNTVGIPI
T2 sequence (P00519 whole entry): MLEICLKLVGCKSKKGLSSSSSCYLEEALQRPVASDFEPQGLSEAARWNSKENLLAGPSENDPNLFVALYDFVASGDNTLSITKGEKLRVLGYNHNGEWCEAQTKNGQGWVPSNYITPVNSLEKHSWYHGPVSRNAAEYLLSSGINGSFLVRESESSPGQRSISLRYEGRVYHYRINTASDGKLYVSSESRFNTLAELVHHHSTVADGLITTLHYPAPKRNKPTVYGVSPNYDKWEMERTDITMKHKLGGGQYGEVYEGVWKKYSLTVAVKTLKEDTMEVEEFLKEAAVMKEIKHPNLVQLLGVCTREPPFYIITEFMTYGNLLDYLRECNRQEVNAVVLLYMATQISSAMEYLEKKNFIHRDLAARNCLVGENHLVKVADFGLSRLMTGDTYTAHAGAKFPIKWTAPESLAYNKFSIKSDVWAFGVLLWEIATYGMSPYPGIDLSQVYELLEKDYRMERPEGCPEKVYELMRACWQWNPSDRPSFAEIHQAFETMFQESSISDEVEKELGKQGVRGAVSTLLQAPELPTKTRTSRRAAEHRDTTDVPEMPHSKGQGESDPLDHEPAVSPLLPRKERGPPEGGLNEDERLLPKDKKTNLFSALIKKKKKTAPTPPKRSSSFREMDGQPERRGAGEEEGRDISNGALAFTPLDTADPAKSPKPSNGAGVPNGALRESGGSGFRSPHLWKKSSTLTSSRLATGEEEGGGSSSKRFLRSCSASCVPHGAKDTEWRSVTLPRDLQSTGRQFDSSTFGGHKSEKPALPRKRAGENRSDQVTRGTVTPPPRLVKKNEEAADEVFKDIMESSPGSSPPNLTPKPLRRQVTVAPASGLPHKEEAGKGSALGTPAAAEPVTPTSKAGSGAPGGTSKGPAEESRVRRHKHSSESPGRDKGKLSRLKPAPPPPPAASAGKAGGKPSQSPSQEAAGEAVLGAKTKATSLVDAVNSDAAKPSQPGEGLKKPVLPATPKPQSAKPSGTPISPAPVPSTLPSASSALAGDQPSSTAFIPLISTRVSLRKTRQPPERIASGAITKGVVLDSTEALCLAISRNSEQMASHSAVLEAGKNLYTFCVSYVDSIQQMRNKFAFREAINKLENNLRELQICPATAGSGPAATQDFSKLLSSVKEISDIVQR

Row | SMILES | pKi (EPHA2) | pKi (Abl) | pKi (Src) | pKi (SIK3) | pKi (SIK2) | pKi (SIK1)
1 | Cc1cccc(F)c1-c1cc(NCC2CN(C)C2)c2cc(N)ncc2c1 [Example 72, 7-(2-fluoro-6-methyl-phenyl)-N5-[(1-methylazetidin-3-yl)methyl] isoquinoline-3,5-diamine] | 6.81 | 8.74 | 7.40 | 8.89 | 9.93 | 9.20
2 | CC(=O)N[C@H]1CCN(c2cc(-c3c(C)cccc3F)cc3cnc(N)cc23)C1 [Example 112, N-[(3S)-1-[3-Amino-7-(2-fluoro-6-methyl-phenyl)-5-isoquinolyl]pyrrolidin-3-yl]acetamide] | < 5.00 | 6.91 | < 5.00 | 6.37 | 7.83 | 7.04
3 | Cc1cccc(F)c1-c1cc(N2CCC(N(C)C)CC2)c2cc(N)ncc2c1 [Example 57, 5-[4-(dimethylamino)-1-piperidyl]-7-(2-fluoro-6-methyl-phenyl)isoquinolin-3-amine] | 6.82 | 7.22 | 6.52 | 8.61 | 9.83 | 8.95
4 | CNc1cc2c(N3CCC[C@H](N(C)C)C3)cc(-c3c(C)cccc3F)cc2cn1 [Example 83, 5-[(3S)-3-(dimethylamino)-1-piperidyl]-7-(2-fluoro-6-methyl-phenyl)-N-methyl-isoquinolin-3-amine] | < 6.00 | 8.03 | 7.01 | 8.13 | 9.50 | 9.26
5 | CNc1cc2c(NC3CCNCC3)cc(-c3c(C)cccc3F)cc2cn1 [Example 27, 7-(2-Fluoro-6-methyl-phenyl)-N3-methyl-N5-(4-piperidyl)isoquinoline-3,5-diamine] | 6.67 | 7.64 | 6.66 | 9.46 | 10.13 | 9.37
6 | CC(=O)N[C@@H]1CCN(c2cc(-c3c(C)cccc3F)cc3cnc(N)cc23)C1 [Example 113, N-[(3R)-1-[3-amino-7-(2-fluoro-6-methyl-phenyl)-5-isoquinolyl]pyrrolidin-3-yl]acetamide] | < 5.00 | 7.05 | 5.97 | 6.63 | 8.01 | 7.13
7 | CNC[C@H]1CCCN(c2cc(-c3c(C)cccc3F)cc3cnc(N)cc23)C1 [Example 21, 7-(2-fluoro-6-methyl-phenyl)-5-[(3R)-3-(methylamino-methyl)-1-piperidyl]isoquinolin-3-amine] | 7.38 | 7.98 | 7.30 | 8.03 | 9.56 | 9.23
8 | Cc1cccc(F)c1-c1cc(NC2CCOCC2)c2cc(N)ncc2c1 [Example 110, 7-(2-Fluoro-6-methyl-phenyl)-N5-tetrahydropyran-4-yl-isoquinoline-3,5-diamine] | < 6.00 | 7.25 | < 5.00 | 7.11 | 8.16 | 7.26
9 | CN[C@@H]1CCN(c2cc(-c3c(C)cccc3F)cc3cnc(N)cc23)C1 [Example 24, 7-(2-fluoro-6-methyl-phenyl)-5-[(3R)-3-(methylamino)pyrrolidin-1-yl]isoquinolin-3-amine] | 6.83 | 7.47 | 6.49 | 8.12 | 9.40 | 8.63
10 | Cc1cccc(Cl)c1-c1cc(NC2CN(C)C2)c2ccncc2c1 [Example 67, 7-(2-chloro-6-methyl-phenyl)-N-(1-methylazetidin-3-yl)isoquinolin-5-amine] | 7.30 | 7.03 | 6.60 | 7.57 | 7.93 | 7.98
11 | CNC1CCN(c2cc(-c3c(C)cccc3F)cc3cnc(N)cc23)CC1 [Example 15, 7-(2-fluoro-6-methyl-phenyl)-5-[4-(methylamino)-1-piperidyl]isoquinolin-3-amine] | 6.81 | 7.71 | 6.40 | 8.71 | 9.81 | 9.00
12 | Cc1cccc(F)c1-c1cc(NC[C@@H]2CCCN(C)C2)c2cc(N)ncc2c1 [Example 76, 7-(2-fluoro-6-methyl-phenyl)-N5-[[(3S)-1-methyl-3-piperidyl]methyl]isoq uinoline-3,5-diamine] | 7.78 | 8.70 | 7.90 | 8.79 | 9.73 | 9.29
13 | Cc1cccc(F)c1-c1cc(NC2CCN(C)CC2)c2cc(N)ncc2c1 [Example 54, 7-(2-Fluoro-6-methyl-phenyl)-N5-(1-methyl-4-piperidyl)isoquinoline-3,5-diamine] | 6.71 | 7.79 | 6.99 | 9.05 | 10.33 | 9.38
14 | Cc1cccc(F)c1-c1cc(NC2CCNCC2)c2cc(N)ncc2c1 [Example 1, 7-(2-Fluoro-6-methyl-phenyl)-N5-(4-piperidyl)isoquinoline-3,5-diamine] | 6.91 | 7.79 | 6.82 | 9.45 | 10.29 | 9.44

— patent publication US12637428B2, “Isoquinoline derivatives as SIK2 inhibitors” (Cancer Research Technology Limited, priority 2019, dated 2026)
